For 15 compounds, IC50, AC50 and EC50 results are on record in ChEMBL document CHEMBL1201862, “PubChem BioAssay data set” (2004).

Assay [1] concerns the target T1, Low molecular weight phosphotyrosine protein phosphatase (Homo sapiens, UniProt P24666).
T1 sequence (P24666 whole entry): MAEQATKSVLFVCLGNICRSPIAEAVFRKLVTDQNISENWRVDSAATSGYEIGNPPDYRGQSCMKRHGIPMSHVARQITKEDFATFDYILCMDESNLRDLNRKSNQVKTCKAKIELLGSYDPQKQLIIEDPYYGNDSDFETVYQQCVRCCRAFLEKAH
It is filed as functional. As to conditions: read-out: IC50_Mean.

Assay [2] deals with T1, Low molecular weight phosphotyrosine protein phosphatase. Type of assay: functional. Particulars: read-out: IC50_Mean. This is another data set of the same source.
The subject of the next assay is Escherichia coli. Kind of assay: microbe, parasite or virus in culture.
The target in assay [3] is ATP-dependent molecular chaperone HSP82 (Candida albicans (strain WO-1) (Yeast), UniProt C4YTQ8). Kind of assay: steroid-induced GRE reporter decrease in yeast – S. cerevisiae, luminescence, Hsp90 inhibitor project, dose response (AID 2400).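 Also: beta-galactosidase luminescence from glucocorticoid response element reporter as proxy for Hsp90 function; inhibitor potency where signal loss means Hsp90 inhibition.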 Type of assay: functional, cell-based.
ATP-dependent molecular chaperone HSP82, sequence (C4YTQ8 whole entry): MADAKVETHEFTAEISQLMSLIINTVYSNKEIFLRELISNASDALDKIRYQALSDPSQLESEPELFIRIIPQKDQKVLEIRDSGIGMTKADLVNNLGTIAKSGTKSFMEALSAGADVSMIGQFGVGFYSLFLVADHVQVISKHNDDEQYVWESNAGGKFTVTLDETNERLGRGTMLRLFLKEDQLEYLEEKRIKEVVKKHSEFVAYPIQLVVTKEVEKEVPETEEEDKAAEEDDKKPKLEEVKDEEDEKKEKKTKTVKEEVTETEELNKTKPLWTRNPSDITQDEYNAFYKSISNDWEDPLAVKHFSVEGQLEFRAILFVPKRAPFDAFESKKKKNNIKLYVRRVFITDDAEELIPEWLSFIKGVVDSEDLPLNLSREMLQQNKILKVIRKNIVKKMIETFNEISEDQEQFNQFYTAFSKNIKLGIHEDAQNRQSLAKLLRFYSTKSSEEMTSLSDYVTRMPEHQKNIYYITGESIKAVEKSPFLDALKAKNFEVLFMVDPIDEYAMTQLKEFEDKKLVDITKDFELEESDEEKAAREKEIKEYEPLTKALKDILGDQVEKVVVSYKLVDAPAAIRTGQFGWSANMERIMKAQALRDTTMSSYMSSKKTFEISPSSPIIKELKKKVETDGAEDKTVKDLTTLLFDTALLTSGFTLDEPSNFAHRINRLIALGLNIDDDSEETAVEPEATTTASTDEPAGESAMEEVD
Assay [4] in a line: fluconazole-exposed Candida albicans growth modulators – fluorescence, retest, confirmation (AID 2467). Type of assay: functional, cell-based.
Assay [5] in a line: NIH-3T3 fibroblast cytotoxicity, dose response, cytotoxicity control, cell-based, fluorescence, Alamar Blue, secondary assay (AID 2327).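 Also: NIH-3T3 mouse fibroblasts cultured with fluconazole at 8 µg/mL.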 Type of assay: functional. (Resazurin is reduced to fluorescent resorufin, in cell work by metabolically active cells.)
In assay [6] the target is T2, Serine/threonine-protein phosphatase (Candida dubliniensis (strain CD36 / CBS 7987 / NCPF 3949 / NRRLY-17841) (Yeast), UniProt B9W6M3).
T2 sequence (B9W6M3 whole entry): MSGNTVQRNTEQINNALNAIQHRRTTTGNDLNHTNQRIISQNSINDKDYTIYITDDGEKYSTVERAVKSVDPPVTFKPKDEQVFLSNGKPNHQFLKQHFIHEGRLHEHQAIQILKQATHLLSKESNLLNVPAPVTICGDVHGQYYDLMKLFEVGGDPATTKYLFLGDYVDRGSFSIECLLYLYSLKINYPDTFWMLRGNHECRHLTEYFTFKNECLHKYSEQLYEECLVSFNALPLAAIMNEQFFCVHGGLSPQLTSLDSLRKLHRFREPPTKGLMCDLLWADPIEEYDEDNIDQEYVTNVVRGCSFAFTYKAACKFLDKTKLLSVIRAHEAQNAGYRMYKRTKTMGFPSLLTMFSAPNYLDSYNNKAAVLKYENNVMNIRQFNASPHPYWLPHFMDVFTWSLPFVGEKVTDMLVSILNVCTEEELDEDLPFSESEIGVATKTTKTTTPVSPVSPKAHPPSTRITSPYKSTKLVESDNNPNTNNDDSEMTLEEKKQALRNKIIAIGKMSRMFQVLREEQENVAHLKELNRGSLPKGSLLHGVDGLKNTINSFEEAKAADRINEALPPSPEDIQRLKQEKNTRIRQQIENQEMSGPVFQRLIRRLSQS
Briefly: blockers of CaCl2-induced CDRE-lacZ signaling – S. cerevisiae, luminescence, secondary, dose response (AID 2388).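 Also: yeast reporter cells carrying a calcineurin-responsive lacZ construct stimulated with calcium chloride; luminescent beta-galactosidase reporter signal in whole cells rather than isolated phosphatase activity; potency for inhibition where a drop in reporter signal means calcineurin blockade.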 It is filed as functional, cell-based.

Another assay concerns INS1. Briefly: INS-1E survival protection against cytokine death – cell-based, luminescence, retest, dose response (AID 449756).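 Also: cell death triggered by IL-1 beta plus TNF-alpha plus IFN-gamma mixture; protective hits raise ATP signal compared with cytokine alone wells.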 It is filed as functional. Particulars: Rattus norvegicus.
Assay [7] has as its target Voltage-dependent T-type calcium channel subunit alpha-1H (Homo sapiens, UniProt O95180). Type of assay: functional.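 Also: channel activity triggered by adding a high calcium stimulation buffer.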
In a further assay the target is SUMO-activating enzyme (Homo sapiens, UniProt Q9UBT2). Kind of assay: blockers of UBC9-mediated SUMO conjugation – biochemical, AlphaScreen, SUMOylation inhibitor project, confirmation (AID 2018). It is filed as functional. (In general: Alpha assays give light when donor and acceptor beads are brought close together.)
Assay [8] is described as follows: reduced cellular PGC1a acetyl-lysine signal – cell-based, cherry-picked samples, dose response (AID 720514).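 Also: potency may reflect raised or lowered acetylation signal.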 Type of assay: functional.
Assay [9] deals with Ras and Rab interactor 1/Tyrosine-protein kinase ABL1 (Homo sapiens, UniProt P00519+Q13671). It is filed as functional.
Ras and Rab interactor 1/Tyrosine-protein kinase ABL1, sequence (P00519 whole entry): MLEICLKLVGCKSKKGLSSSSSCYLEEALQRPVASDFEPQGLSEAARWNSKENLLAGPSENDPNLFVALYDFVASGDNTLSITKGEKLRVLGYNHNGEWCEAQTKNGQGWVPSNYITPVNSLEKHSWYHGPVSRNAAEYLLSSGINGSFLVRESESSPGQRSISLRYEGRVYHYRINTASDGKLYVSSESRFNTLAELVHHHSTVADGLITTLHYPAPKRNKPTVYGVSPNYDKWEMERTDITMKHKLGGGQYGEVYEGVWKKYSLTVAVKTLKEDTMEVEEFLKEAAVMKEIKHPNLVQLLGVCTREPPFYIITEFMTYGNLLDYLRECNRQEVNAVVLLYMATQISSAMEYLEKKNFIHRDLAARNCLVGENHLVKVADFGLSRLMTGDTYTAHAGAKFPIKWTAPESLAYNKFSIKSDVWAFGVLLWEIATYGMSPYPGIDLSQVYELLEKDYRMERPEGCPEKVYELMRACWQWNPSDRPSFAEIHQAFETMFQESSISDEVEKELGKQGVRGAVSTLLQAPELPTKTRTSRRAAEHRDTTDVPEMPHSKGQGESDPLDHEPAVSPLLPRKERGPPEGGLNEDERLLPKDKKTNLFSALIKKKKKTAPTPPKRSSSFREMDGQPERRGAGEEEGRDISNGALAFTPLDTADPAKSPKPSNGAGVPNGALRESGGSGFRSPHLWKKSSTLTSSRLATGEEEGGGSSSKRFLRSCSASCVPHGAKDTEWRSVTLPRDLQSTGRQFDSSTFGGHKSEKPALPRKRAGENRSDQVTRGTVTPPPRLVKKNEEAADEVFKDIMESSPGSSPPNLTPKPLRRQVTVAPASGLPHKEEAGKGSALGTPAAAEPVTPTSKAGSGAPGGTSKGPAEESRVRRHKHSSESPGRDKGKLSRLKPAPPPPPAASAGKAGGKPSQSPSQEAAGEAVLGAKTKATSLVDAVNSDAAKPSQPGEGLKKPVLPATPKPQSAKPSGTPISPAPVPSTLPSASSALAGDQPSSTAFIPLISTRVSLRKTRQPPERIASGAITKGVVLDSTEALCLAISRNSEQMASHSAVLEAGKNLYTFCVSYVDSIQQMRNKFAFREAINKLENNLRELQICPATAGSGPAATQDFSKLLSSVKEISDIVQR
Ras and Rab interactor 1/Tyrosine-protein kinase ABL1, sequence (Q13671 whole entry): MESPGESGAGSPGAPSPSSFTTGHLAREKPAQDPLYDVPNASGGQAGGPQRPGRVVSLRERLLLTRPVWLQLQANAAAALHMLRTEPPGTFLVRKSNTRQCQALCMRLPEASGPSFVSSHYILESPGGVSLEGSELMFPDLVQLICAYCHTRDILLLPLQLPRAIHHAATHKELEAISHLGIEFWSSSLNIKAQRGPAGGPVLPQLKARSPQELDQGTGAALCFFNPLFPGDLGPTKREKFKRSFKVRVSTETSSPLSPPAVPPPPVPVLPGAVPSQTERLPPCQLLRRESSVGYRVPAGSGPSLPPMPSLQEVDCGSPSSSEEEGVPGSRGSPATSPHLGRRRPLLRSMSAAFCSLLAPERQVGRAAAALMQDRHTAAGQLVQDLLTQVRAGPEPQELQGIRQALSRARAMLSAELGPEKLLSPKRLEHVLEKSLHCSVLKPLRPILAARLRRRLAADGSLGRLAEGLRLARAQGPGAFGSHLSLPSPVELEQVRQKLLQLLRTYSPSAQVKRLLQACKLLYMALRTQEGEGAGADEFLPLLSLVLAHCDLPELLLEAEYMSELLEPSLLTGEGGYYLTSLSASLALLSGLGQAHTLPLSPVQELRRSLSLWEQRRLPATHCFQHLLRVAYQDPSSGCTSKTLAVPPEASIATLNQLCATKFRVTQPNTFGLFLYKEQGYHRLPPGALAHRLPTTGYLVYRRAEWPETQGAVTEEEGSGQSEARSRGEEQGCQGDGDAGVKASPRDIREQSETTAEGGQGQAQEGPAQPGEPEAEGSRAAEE
A short description of assay [10]: blockers of CRF-binding protein–CRF-R2 complex – cell-based, uHTS hits, 384-well, dose response (AID 651639). It is filed as functional, Homo sapiens. As to conditions: read-out: IC50_Mean.
Assay [11] addresses T3, Corticotropin-releasing factor receptor 2/Corticotropin-releasing factor-binding protein (Homo sapiens, UniProt P24387+Q13324).
T3 sequence (Q13324 whole entry): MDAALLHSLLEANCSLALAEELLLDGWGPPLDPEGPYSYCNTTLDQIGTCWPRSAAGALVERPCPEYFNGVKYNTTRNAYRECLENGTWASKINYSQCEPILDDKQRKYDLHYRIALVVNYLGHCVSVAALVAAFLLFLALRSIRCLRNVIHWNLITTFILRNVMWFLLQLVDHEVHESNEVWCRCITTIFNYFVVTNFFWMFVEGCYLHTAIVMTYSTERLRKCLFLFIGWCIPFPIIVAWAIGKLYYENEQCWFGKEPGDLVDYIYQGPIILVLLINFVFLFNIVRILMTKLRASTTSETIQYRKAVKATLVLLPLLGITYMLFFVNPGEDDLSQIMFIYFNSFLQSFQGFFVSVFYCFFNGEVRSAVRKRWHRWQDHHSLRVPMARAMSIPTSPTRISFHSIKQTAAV
T3 sequence (P24387 whole entry): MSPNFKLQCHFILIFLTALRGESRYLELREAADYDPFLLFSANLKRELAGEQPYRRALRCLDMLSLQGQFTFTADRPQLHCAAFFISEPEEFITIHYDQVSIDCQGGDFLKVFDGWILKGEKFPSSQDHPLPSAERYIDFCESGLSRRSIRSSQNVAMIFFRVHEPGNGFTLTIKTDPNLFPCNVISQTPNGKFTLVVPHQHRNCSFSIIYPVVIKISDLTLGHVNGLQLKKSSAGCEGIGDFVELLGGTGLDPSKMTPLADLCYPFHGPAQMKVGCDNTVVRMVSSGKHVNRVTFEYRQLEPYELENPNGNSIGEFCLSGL
Briefly: activators of CRF receptor 2 with binding protein – uHTS hits, confirmation (AID 602473). Type of assay: functional. Particulars: read-out: EC50_Mean.

Assay [12] addresses T3, Corticotropin-releasing factor receptor 2/Corticotropin-releasing factor-binding protein. Briefly: Dose Response confirmation of uHTS hits for small molecule antagonists of the CRF-binding protein and CRF-R2 receptor complex. It is filed as functional. As to conditions: read-out: IC50_Mean.
Assay [13] in a line: HEK-293T viability loss after treatment – luminescence, T-cell screen hits, cytotoxicity control for TCR NF-kB inhibitor project, dose response (AID 489026).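 Also: cells exposed to compound about 14 hours before the viability readout.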 Type of assay: functional, cell-based.
The target of assay [14] is T4, Microphthalmia-associated transcription factor (Homo sapiens, UniProt O75030).
T4 sequence (O75030 whole entry): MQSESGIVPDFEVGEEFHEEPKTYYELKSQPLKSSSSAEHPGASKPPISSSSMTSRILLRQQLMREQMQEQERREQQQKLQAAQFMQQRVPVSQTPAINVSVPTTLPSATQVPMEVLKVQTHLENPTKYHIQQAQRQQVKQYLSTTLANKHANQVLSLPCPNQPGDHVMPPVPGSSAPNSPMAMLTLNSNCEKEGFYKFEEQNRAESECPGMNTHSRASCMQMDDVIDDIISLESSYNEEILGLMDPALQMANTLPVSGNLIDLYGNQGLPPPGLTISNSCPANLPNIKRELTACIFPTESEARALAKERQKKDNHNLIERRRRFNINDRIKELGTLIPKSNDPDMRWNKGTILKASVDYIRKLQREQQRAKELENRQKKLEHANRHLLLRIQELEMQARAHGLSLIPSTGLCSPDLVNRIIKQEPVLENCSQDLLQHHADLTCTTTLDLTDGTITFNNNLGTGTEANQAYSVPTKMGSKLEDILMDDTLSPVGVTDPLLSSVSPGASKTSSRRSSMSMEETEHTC
Briefly: reducers of TRPM1 reporter luminescence, concentration series – cell-based, SK-MEL-5, cherry-picked, set 3, MITF inhibitor project, dose response (AID 493073).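 Also: SK-MEL-5 melanoma cells with luciferase driven by the MITF target TRPM1 promoter.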 It is filed as functional.

The test system of assay [15] is BJ. Kind of assay: cells. Particulars: Homo sapiens. It is filed as functional, cell-based.
Assay [16] deals with BJ. Briefly: BJ-TERT fibroblast viability loss – cell-based, RAS-independent, luminescence, dose response (AID 1933). Type of assay: functional. Particulars: Homo sapiens.
Assay [17] can be described thus: DRD fibroblast viability loss – cell-based, non-viral oncogenic, luminescence, dose response (AID 1934). It is filed as functional. As to conditions: Homo sapiens.

Calls of active or inactive are those of the source.

Voltage-dependent T-type calcium channel subunit alpha-1H, sequence (O95180 whole entry): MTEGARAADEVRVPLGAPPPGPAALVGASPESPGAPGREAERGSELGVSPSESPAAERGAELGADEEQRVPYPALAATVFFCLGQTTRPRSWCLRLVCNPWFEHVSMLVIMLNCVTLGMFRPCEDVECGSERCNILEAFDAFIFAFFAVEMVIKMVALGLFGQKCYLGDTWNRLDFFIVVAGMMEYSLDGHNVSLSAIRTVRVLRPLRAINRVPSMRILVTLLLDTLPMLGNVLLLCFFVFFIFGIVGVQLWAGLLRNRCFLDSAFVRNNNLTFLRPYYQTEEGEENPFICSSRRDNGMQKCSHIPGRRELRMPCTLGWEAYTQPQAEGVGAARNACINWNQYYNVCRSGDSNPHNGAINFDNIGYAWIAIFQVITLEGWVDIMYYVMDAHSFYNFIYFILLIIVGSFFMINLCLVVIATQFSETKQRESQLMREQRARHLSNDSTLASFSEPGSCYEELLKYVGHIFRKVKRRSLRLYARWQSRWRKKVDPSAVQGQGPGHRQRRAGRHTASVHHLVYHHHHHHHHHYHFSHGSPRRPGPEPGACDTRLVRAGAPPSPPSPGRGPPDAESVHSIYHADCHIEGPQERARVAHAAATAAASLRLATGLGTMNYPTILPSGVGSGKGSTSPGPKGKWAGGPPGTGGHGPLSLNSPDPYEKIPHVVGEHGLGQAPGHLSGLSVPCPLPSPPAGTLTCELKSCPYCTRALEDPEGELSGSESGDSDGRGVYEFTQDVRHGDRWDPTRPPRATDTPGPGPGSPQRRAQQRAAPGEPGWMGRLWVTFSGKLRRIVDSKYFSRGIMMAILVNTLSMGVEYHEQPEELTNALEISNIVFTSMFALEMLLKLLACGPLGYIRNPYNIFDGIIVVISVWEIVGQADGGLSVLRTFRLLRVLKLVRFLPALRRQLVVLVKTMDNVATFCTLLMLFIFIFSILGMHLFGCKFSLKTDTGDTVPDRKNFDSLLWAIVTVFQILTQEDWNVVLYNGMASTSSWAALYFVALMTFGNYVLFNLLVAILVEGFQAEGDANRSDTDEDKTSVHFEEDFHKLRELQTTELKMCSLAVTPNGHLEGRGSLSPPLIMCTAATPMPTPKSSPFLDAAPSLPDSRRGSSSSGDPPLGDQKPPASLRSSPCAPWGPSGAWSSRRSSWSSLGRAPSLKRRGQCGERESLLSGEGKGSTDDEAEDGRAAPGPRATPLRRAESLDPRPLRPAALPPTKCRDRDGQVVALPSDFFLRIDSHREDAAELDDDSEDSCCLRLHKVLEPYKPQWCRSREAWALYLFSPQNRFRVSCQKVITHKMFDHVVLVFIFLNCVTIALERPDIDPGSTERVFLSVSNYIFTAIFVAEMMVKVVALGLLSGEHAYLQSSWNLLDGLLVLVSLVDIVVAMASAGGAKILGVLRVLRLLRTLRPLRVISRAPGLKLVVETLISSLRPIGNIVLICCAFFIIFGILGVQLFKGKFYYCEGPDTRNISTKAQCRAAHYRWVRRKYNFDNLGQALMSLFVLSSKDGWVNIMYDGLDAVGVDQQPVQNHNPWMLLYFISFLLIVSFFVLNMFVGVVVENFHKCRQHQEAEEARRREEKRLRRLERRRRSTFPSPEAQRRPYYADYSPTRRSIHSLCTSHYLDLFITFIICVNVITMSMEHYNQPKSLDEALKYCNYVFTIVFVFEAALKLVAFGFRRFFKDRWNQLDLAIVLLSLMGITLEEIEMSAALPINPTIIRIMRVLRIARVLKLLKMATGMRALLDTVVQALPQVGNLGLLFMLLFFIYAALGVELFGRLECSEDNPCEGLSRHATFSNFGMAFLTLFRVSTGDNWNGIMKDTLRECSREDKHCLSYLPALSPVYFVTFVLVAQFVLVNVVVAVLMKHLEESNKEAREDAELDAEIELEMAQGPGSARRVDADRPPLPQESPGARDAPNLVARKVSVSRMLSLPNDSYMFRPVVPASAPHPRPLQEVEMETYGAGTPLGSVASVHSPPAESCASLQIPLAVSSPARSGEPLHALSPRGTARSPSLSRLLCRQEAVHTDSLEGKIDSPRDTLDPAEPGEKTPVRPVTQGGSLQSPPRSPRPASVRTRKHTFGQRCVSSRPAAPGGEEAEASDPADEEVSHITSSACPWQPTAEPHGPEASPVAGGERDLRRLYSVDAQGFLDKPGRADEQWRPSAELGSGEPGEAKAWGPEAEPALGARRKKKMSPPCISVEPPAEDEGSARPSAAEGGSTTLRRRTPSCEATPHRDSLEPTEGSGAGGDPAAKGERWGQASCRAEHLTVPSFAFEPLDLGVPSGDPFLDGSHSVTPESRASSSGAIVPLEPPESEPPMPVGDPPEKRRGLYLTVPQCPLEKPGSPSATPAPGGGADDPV

Consider `O=c1cc(-c2cc3ccccc3o2)c2cc(O)ccc2o1`, for which the values for the IC50 in assay [1] and in assay [2] were 19.7 µM (active) and 24.1 µM (inactive), respectively.

The AC50 is the concentration giving half of the maximal activity seen. On to `O=C(Nc1ccc(Br)cc1)C1CC(O)CN1C(=O)Oc1ccccc1` (centres undefined), for which the AC50 in the assay on Escherichia coli was 42.7 µM (active).

For `COCCn1c(=O)[nH]c(=O)c2cc(C(=O)c3cc(Cl)ccc3O)cnc21`, the EC50 was > 160 µM (inactive) in assay [3], 1.12 µM (active) in assay [4], > 160 µM (inactive) in assay [5] and > 180 µM (inactive) in [6].

`O=C(Nc1ccsc1C(=O)NC1CCCCC1)c1ccccc1`: in the assay with Escherichia coli, the AC50 was 26 µM (active).

With `Cc1ccc(NC(=O)Cn2c(=O)oc3cc(S(=O)(=O)N4CCC(C)CC4)ccc32)cc1C`, the AC50 in the assay on INS1 was 8.95 µM (active). The EC50 in [7] is 5.17 µM (active). Also, the IC50 at SUMO-activating enzyme was 24.4 µM (active).

For `COc1ccc(Nc2ccnc3ccccc23)cc1`, the IC50 in assay [1] was 23.4 µM (inactive); in [2], 30.1 µM (inactive). Further, the AC50 in [8] was 28.3 µM (active).

For the compound `Cc1c(C(=O)NCCN2CCOCC2)oc2ccc(Br)cc12`, the IC50 in [9] was 1.02 µM (active).

For the compound `CSc1c(C#N)sc(=S)n1-c1ccc(C)cc1`, the IC50 in assay [10] is > 20 µM (inactive); in assay [12], 11.9 µM (active). In addition, in [11], the EC50 is > 53 µM (inactive).

Regarding `Cc1ccc2c(c1)COc1c3ccc(C(=O)O)cc3nn1-2`, the IC50 in assay [13] was > 80 µM (inactive). Besides, the AC50 in [14] was 2.23 µM (active).

Consider `Cc1cc(C(=O)N2CC=C(c3ccccc3)CC2)c2ccccc2n1`, for which the figures for the EC50 (in the assay on BJ [15]; in the assay on BJ [16]; in assay [17]) were 86.7 µM (active), 1.32 µM (active) and 0.653 µM (active), respectively. The IC50 in assay [13] is > 80 µM (inactive).

Take `N#CN=C(Nc1cccc(F)c1)SCc1ccccc1F`: the IC50 in assay [10] was 1.67 µM (active); in [12] it was 6.82 µM (active). Also, the EC50 in assay [11] is > 53 µM (inactive).

Consider `CN(CC(=O)NCCN1CCOCC1)S(=O)(=O)c1ccc(Cl)cc1`, for which the AC50 in the assay with Escherichia coli is 23.2 µM (active).

Turning to `CCCn1nc(C(=O)N(C)CC(=O)Nc2ccc(OCC)c(OCC)c2)c2ccccc2c1=O`, in assay [9], the IC50 was 10.5 µM (inactive).

On to `Oc1nc2ccccc2n1C1CCN(C(c2ccnc3ccccc23)c2nnnn2-c2ccc3c(c2)OCCO3)CC1` (centres undefined), for which the IC50 in assay [9] was 15.3 µM (inactive).

`Nc1nc(=O)[nH]cc1F` [FLUCYTOSINE]: the EC50 in assay [3] is > 160 µM (inactive); in [4], 0.252 µM (active); in assay [5], > 160 µM (inactive); in assay [6] it was > 180 µM (inactive).
